{"source": "the CheMixHub ionic liquid set", "assay": "xn = mol fraction of the nth substance listed", "conditions": "100 kPa", "note": "± gives the uncertainty stated by the source."}
{"compound": "O=[N+]([O-])[O-].O=[N+]([O-])[O-].O=[N+]([O-])[O-].[Al+3]", "note": "+ O + CC[NH3+].O=[N+]([O-])[O-]", "values": [{"measurement": "electrical conductivity", "setting": "233 K, x1 = 0.1395, x2 = 0.5934", "value": "0.001 ± 0.001", "unit": "S/m"}, {"measurement": "electrical conductivity", "setting": "243 K, x1 = 0.1395, x2 = 0.5934", "value": "0.006 ± 0.001", "unit": "S/m"}, {"measurement": "electrical conductivity", "setting": "243 K, x1 = 0.2128, x2 = 0.7086", "value": "0.002 ± 0.001", "unit": "S/m"}, {"measurement": "electrical conductivity", "setting": "253 K, x1 = 0.1395, x2 = 0.5934", "value": "0.025 ± 0.003", "unit": "S/m"}, {"measurement": "electrical conductivity", "setting": "253 K, x1 = 0.2128, x2 = 0.7086", "value": "0.011 ± 0.001", "unit": "S/m"}, {"measurement": "electrical conductivity", "setting": "263 K, x1 = 0.1395, x2 = 0.5934", "value": "0.077 ± 0.008", "unit": "S/m"}, {"measurement": "electrical conductivity", "setting": "263 K, x1 = 0.2128, x2 = 0.7086", "value": "0.037 ± 0.004", "unit": "S/m"}, {"measurement": "electrical conductivity", "setting": "273 K, x1 = 0.1395, x2 = 0.5934", "value": "0.18 ± 0.018", "unit": "S/m"}, {"measurement": "electrical conductivity", "setting": "273 K, x1 = 0.2128, x2 = 0.7086", "value": "0.094 ± 0.009", "unit": "S/m"}, {"measurement": "electrical conductivity", "setting": "283 K, x1 = 0.1395, x2 = 0.5934", "value": "0.354 ± 0.035", "unit": "S/m"}, {"measurement": "electrical conductivity", "setting": "283 K, x1 = 0.2128, x2 = 0.7086", "value": "0.2 ± 0.02", "unit": "S/m"}, {"measurement": "viscosity", "setting": "288.15 K, x1 = 0.1395, x2 = 0.5934", "value": "274 ± 25", "unit": "mPa·s"}, {"measurement": "viscosity", "setting": "288.15 K, x1 = 0.2128, x2 = 0.7086", "value": "880 ± 110", "unit": "mPa·s"}, {"measurement": "electrical conductivity", "setting": "293 K, x1 = 0.1395, x2 = 0.5934", "value": "0.615 ± 0.062", "unit": "S/m"}, {"measurement": "electrical conductivity", "setting": "293 K, x1 = 0.2128, x2 = 0.7086", "value": "0.371 ± 0.037", "unit": "S/m"}, {"measurement": "viscosity", "setting": "293.15 K, x1 = 0.1395, x2 = 0.5934", "value": "204 ± 13", "unit": "mPa·s"}, {"measurement": "viscosity", "setting": "293.15 K, x1 = 0.2128, x2 = 0.7086", "value": "587 ± 64", "unit": "mPa·s"}, {"measurement": "viscosity", "setting": "298.15 K, x1 = 0.1395, x2 = 0.5934", "value": "153.7 ± 8.1", "unit": "mPa·s"}, {"measurement": "viscosity", "setting": "298.15 K, x1 = 0.2128, x2 = 0.7086", "value": "394 ± 36", "unit": "mPa·s"}, {"measurement": "electrical conductivity", "setting": "303 K, x1 = 0.1395, x2 = 0.5934", "value": "0.974 ± 0.097", "unit": "S/m"}, {"measurement": "electrical conductivity", "setting": "303 K, x1 = 0.2128, x2 = 0.7086", "value": "0.624 ± 0.062", "unit": "S/m"}, {"measurement": "viscosity", "setting": "303.15 K, x1 = 0.1395, x2 = 0.5934", "value": "116.8 ± 5", "unit": "mPa·s"}, {"measurement": "viscosity", "setting": "303.15 K, x1 = 0.2128, x2 = 0.7086", "value": "269 ± 20", "unit": "mPa·s"}, {"measurement": "viscosity", "setting": "308.15 K, x1 = 0.1395, x2 = 0.5934", "value": "89.5 ± 3.1", "unit": "mPa·s"}, {"measurement": "viscosity", "setting": "308.15 K, x1 = 0.2128, x2 = 0.7086", "value": "185 ± 11", "unit": "mPa·s"}, {"measurement": "electrical conductivity", "setting": "313 K, x1 = 0.1395, x2 = 0.5934", "value": "1.43 ± 0.14", "unit": "S/m"}, {"measurement": "electrical conductivity", "setting": "313 K, x1 = 0.2128, x2 = 0.7086", "value": "0.971 ± 0.097", "unit": "S/m"}, {"measurement": "viscosity", "setting": "313.15 K, x1 = 0.1395, x2 = 0.5934", "value": "69.2 ± 2.2", "unit": "mPa·s"}, {"measurement": "viscosity", "setting": "313.15 K, x1 = 0.2128, x2 = 0.7086", "value": "129.3 ± 6.1", "unit": "mPa·s"}, {"measurement": "electrical conductivity", "setting": "323 K, x1 = 0.1395, x2 = 0.5934", "value": "2 ± 0.2", "unit": "S/m"}, {"measurement": "electrical conductivity", "setting": "323 K, x1 = 0.2128, x2 = 0.7086", "value": "1.42 ± 0.14", "unit": "S/m"}, {"measurement": "electrical conductivity", "setting": "333 K, x1 = 0.1395, x2 = 0.5934", "value": "2.66 ± 0.27", "unit": "S/m"}, {"measurement": "electrical conductivity", "setting": "333 K, x1 = 0.2128, x2 = 0.7086", "value": "1.98 ± 0.2", "unit": "S/m"}, {"measurement": "electrical conductivity", "setting": "343 K, x1 = 0.1395, x2 = 0.5934", "value": "3.41 ± 0.34", "unit": "S/m"}, {"measurement": "electrical conductivity", "setting": "343 K, x1 = 0.2128, x2 = 0.7086", "value": "2.64 ± 0.26", "unit": "S/m"}, {"measurement": "electrical conductivity", "setting": "353 K, x1 = 0.1395, x2 = 0.5934", "value": "4.25 ± 0.42", "unit": "S/m"}, {"measurement": "electrical conductivity", "setting": "353 K, x1 = 0.2128, x2 = 0.7086", "value": "3.42 ± 0.34", "unit": "S/m"}, {"measurement": "electrical conductivity", "setting": "363 K, x1 = 0.1395, x2 = 0.5934", "value": "5.17 ± 0.52", "unit": "S/m"}, {"measurement": "electrical conductivity", "setting": "363 K, x1 = 0.2128, x2 = 0.7086", "value": "4.3 ± 0.43", "unit": "S/m"}, {"measurement": "electrical conductivity", "setting": "373 K, x1 = 0.1395, x2 = 0.5934", "value": "6.16 ± 0.62", "unit": "S/m"}, {"measurement": "electrical conductivity", "setting": "373 K, x1 = 0.2128, x2 = 0.7086", "value": "5.28 ± 0.53", "unit": "S/m"}]}
{"compound": "CCCC[n+]1ccn(C)c1.N#C[N-]C#N", "note": "+ O + NCCO", "values": [{"measurement": "viscosity", "setting": "303 K, x1 = 0.2918, x2 = 0.2557", "value": "11.73 ± 0.25", "unit": "mPa·s"}, {"measurement": "viscosity", "setting": "308 K, x1 = 0.2918, x2 = 0.2557", "value": "9.99 ± 0.22", "unit": "mPa·s"}, {"measurement": "viscosity", "setting": "313 K, x1 = 0.2918, x2 = 0.2557", "value": "8.59 ± 0.19", "unit": "mPa·s"}, {"measurement": "viscosity", "setting": "318 K, x1 = 0.2918, x2 = 0.2557", "value": "7.46 ± 0.16", "unit": "mPa·s"}, {"measurement": "viscosity", "setting": "323 K, x1 = 0.2918, x2 = 0.2557", "value": "6.53 ± 0.14", "unit": "mPa·s"}]}
{"compound": "CC[n+]1ccn(C)c1C.O=S(=O)([N-]S(=O)(=O)C(F)(F)F)C(F)(F)F", "note": "+ O=C1CCCO1", "values": [{"measurement": "electrical conductivity", "setting": "293.15 K, frequency 0.005 MHz, x2 = 0.3071", "value": "0.628 ± 0.019", "unit": "S/m"}, {"measurement": "electrical conductivity", "setting": "293.15 K, frequency 0.005 MHz, x2 = 0.7999", "value": "1.36 ± 0.041", "unit": "S/m"}, {"measurement": "electrical conductivity", "setting": "293.15 K, frequency 0.005 MHz, x2 = 0.9507", "value": "0.925 ± 0.031", "unit": "S/m"}, {"measurement": "electrical conductivity", "setting": "298.15 K, frequency 0.005 MHz, x2 = 0", "value": "0.383 ± 0.012", "unit": "S/m"}, {"measurement": "electrical conductivity", "setting": "298.15 K, frequency 0.005 MHz, x2 = 0.6999", "value": "1.42 ± 0.043", "unit": "S/m"}, {"measurement": "electrical conductivity", "setting": "298.15 K, frequency 0.005 MHz, x2 = 0.7999", "value": "1.52 ± 0.046", "unit": "S/m"}, {"measurement": "electrical conductivity", "setting": "308.15 K, frequency 0.005 MHz, x2 = 0.4996", "value": "1.34 ± 0.04", "unit": "S/m"}, {"measurement": "electrical conductivity", "setting": "308.15 K, frequency 0.005 MHz, x2 = 0.8999", "value": "1.72 ± 0.053", "unit": "S/m"}, {"measurement": "electrical conductivity", "setting": "313.15 K, frequency 0.005 MHz, x2 = 0.8999", "value": "1.84 ± 0.056", "unit": "S/m"}, {"measurement": "electrical conductivity", "setting": "318.15 K, frequency 0.005 MHz, x2 = 0.4996", "value": "1.69 ± 0.051", "unit": "S/m"}, {"measurement": "electrical conductivity", "setting": "323.15 K, frequency 0.005 MHz, x2 = 0", "value": "0.92 ± 0.028", "unit": "S/m"}, {"measurement": "electrical conductivity", "setting": "323.15 K, frequency 0.005 MHz, x2 = 0.0999", "value": "1.07 ± 0.032", "unit": "S/m"}, {"measurement": "electrical conductivity", "setting": "323.15 K, frequency 0.005 MHz, x2 = 0.5987", "value": "2.02 ± 0.061", "unit": "S/m"}, {"measurement": "electrical conductivity", "setting": "323.15 K, frequency 0.005 MHz, x2 = 0.8474", "value": "2.3 ± 0.069", "unit": "S/m"}, {"measurement": "electrical conductivity", "setting": "323.15 K, frequency 0.005 MHz, x2 = 0.9507", "value": "1.4 ± 0.046", "unit": "S/m"}]}
{"compound": "CC(=O)[O-].CC[n+]1ccn(C)c1", "note": "+ O=C[C@H](O)[C@@H](O)[C@H](O)[C@H](O)CO", "values": [{"measurement": "viscosity", "setting": "282.5 K, x2 = 0.009453", "value": "407 ± 30", "unit": "mPa·s"}, {"measurement": "viscosity", "setting": "282.5 K, x2 = 0.02839", "value": "517 ± 39", "unit": "mPa·s"}, {"measurement": "viscosity", "setting": "312.5 K, x2 = 0.1429", "value": "419 ± 31", "unit": "mPa·s"}, {"measurement": "viscosity", "setting": "332.2 K, x2 = 0.1429", "value": "123 ± 8", "unit": "mPa·s"}, {"measurement": "viscosity", "setting": "373.1 K, x2 = 0.095", "value": "19 ± 1", "unit": "mPa·s"}]}
